Results as given in patent publication US20200030415A1 (priority 2018, published 2020).
Where “and” joins values, the source holds several entries; their conditions need not be identical. Identical values can stand only once. Like-named read-outs stand apart in the source and are kept apart here.

Assays:
Details in all cases: human, in vivo
migraine [1] = test system: migraine
migraine [2] = test system: migraine; remark: listed apart in the source
chronic migraine [3] = test system: chronic migraine
chronic migraine [4] = test system: chronic migraine; remark: listed apart in the source
chronic migraine [5] = test system: chronic migraine; remark: listed apart in the source

## CN(C)CCC=C1c2ccccc2CCc2ccccc21 [Amitriptyline, amitriptyline]
Migraine [1]
  adverse effect of oral preventive medication: weight gain
  effect of oral preventive medication on headache frequency: none of these reduced their headache frequency
Migraine [2]
  change of headaches with oral medication: minimal change

## CC12CC3CC(C)(C1)CC(N)(C3)C2 [Namenda, memantine]
Migraine [2]
  benefit of added treatment: minimal benefit

## CC(C)NCC(O)COc1cccc2ccccc12 (centres unmarked) [Propranolol]
Migraine [1]
  adverse effect of oral preventive medication: limited their exercise tolerance
  effect of oral preventive medication on headache frequency: none of these reduced their headache frequency

## C[C@@H]1[C@H](c2c(F)ccc(F)c2F)C[C@H](NC(=O)c2cnc3c(c2)C[C@@]2(C3)C(=O)Nc3ncccc32)C(=O)N1CC(F)(F)F [atogepant, reference compound]
Chronic migraine [3]
  headache frequency: 9 days a month

## CC1(C)O[C@@H]2[C@@H](CO[C@@]3(COS(N)(=O)=O)OC(C)(C)O[C@@H]23)O1 [topiramate]
Chronic migraine [4]; po
  headache control with oral preventive medication: without headache control
Migraine [1]
  adverse effect of oral preventive medication: cognitive slowing
  effect of oral preventive medication on headache frequency: none of these reduced their headache frequency
Migraine [2]
  change of headaches with oral medication: minimal change

## OnabotulinumtoxinA
Chronic migraine [4]
  improvement of headache days from baseline: about 50%
  migraine days per month: 15 days per month
Migraine [1]
  headache intensity: 7 out of 10
Migraine [2]
  headache frequency: 10/30
  headache intensity: 6-7 out of a scale of 10
Chronic migraine [3]
  headache frequency: 10 days a month
Chronic migraine [5]
  headache frequency post treatment: 14 days/month

B1: erenumab (antibody, chains of the INN, looked up, V domains shown)
VH: QVQLVESGGGVVQPGRSLRLSCAASGFTFSSFGMHWVRQAPGKGLEWVAVISFDGSIKYSVDSVKGRFTISRDNSKNTLFLQMNSLRAEDTAVYYCARDRLNYYDSSGYYHYKYYGMAVWGQGTTVTVSS
VL: QSVLTQPPSVSAAPGQKVTISCSGSSSNIGNNYVSWYQQLPGTAPKLLIYDNNKRPSGIPDRFSGSKSGTSTTLGITGLQTGDEADYYCGTWDSRLSAVVFGGGTKLTVL
Chronic migraine [5]
  headache frequency: 10 days/month and 15 days/month

B2: Ajovy (antibody, chains of the INN, looked up, V domains shown)
VH: EVQLVESGGGLVQPGGSLRLSCAASGFTFSNYWISWVRQAPGKGLEWVAEIRSESDASATHYAEAVKGRFTISRDNAKNSLYLQMNSLRAEDTAVYYCLAYFDYGLAIQNYWGQGTLVTVSS
VL: EIVLTQSPATLSLSPGERATLSCKASKRVTTYVSWYQQKPGQAPRLLIYGASNRYLGIPARFSGSGSGTDFTLTISSLEPEDFAVYYCSQSYNYPYTFGQGTKLEIK
Migraine [1]; sc
  headache intensity: lower intensity
